In ChEMBL document CHEMBL1130083, “Discovery of prototype peptidomimetic agonists at the human melanocortin receptors MC1R and MC4R” (J Med Chem, 1997):

Tests used:
[1] = molecular target: T1, Melanocyte-stimulating hormone receptor (Homo sapiens, UniProt Q01726); assay: Displacement of [125I]NDP-MSH from Melanocortin 1 receptor at 10 uM
[2] = test system: MCR; assay: Effective concentration was measured against frog skin MCR cells at 10 e-4 10 e-12 M Concentration.; format: functional, cell-based; details: Anura
[3] = molecular target: Melanocortin receptor 3 (Homo sapiens, UniProt P41968); assay: Displacement of [125I]NDP-MSH from Melanocortin 3 receptor at 10 uM
Chain of Melanocortin receptor 3 (P41968 whole entry): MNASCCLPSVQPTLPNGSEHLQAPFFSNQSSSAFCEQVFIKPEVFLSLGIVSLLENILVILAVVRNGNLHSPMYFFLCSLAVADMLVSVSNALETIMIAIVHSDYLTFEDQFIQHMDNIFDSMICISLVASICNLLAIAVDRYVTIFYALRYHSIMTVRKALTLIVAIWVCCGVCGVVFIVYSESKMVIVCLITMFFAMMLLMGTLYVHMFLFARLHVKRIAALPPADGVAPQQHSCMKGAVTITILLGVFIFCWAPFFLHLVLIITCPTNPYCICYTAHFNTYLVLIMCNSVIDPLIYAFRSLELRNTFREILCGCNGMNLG

[4] = molecular target: Melanocortin receptor 5 (Homo sapiens, UniProt P33032); assay: Displacement of [125I]NDP-MSH from Melanocortin 5 receptor at 10 uM
Chain of Melanocortin receptor 5 (P33032 whole entry): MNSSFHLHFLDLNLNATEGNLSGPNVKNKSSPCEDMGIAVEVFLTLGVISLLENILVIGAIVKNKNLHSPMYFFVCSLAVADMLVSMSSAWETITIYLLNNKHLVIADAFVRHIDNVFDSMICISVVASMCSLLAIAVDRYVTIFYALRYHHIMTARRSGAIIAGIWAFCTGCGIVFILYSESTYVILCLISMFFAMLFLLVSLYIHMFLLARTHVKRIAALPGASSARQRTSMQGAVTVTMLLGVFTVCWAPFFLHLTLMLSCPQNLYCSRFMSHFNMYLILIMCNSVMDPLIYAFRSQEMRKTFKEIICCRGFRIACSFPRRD

[5] = molecular target: T1, Melanocyte-stimulating hormone receptor; assay: effective concentration of peptide at 50% maximal cAMP accumulation on Melanocortin 1 receptor; format: functional
[6] = molecular target: Melanocortin receptor 4 (Homo sapiens, UniProt P32245); assay: Displacement of [125I]NDP-MSH from Melanocortin 4 receptor at 10 uM
Chain of Melanocortin receptor 4 (P32245 whole entry): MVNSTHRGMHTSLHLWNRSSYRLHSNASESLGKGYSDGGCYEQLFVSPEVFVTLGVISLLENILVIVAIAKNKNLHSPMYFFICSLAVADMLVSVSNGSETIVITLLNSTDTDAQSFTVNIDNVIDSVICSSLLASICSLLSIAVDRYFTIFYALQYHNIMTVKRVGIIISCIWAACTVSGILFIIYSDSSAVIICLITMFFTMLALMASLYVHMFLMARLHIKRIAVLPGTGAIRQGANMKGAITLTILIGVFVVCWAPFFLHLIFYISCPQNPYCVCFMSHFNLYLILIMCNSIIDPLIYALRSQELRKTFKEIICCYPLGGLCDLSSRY

[7] = test system: MCR; assay: Effective concentration was measured against frog skin(MCR) cells at 10 e-4 10 e-12 M Concentration.; format: functional, cell-based; details: Anura

T1 sequence (Q01726 whole entry): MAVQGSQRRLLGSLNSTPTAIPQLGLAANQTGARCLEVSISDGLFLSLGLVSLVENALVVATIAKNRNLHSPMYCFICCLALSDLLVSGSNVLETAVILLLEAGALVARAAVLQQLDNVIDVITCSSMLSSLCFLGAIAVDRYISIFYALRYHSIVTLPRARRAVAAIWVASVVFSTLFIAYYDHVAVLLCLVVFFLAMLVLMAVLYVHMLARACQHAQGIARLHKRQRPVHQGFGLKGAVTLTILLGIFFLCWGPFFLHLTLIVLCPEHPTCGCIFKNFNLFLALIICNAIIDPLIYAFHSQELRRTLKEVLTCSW

Row | SMILES | IC50 [1] | EC50 [2] | IC50 [3] | IC50 [4] | EC50 [5] | IC50 [6] | EC50 [7]
1 | CC(=O)N[C@@H](Cc1c[nH]cn1)C(=O)N[C@H](Cc1ccccc1)C(=O)N[C@H](CCCN=C(N)N)C(=O)N[C@H](Cc1c[nH]c2ccccc12)C(N)=O | > 10 µM | 1.9 µM | > 10 µM | > 10 µM |  |  | 
2 | CC(=O)NCC(=O)N[C@H](Cc1ccccc1)C(=O)N[C@@H](CCCN=C(N)N)C(=O)N[C@H](Cc1c[nH]c2ccccc12)C(N)=O | > 10 µM | 4.2 µM | > 10 µM | > 10 µM |  | > 10 µM | 
3 | CC(=O)N[C@H](Cc1ccccc1)C(=O)N[C@@H](CCCN=C(N)N)C(=O)N[C@@H](Cc1c[nH]c2ccccc12)C(N)=O | > 10 µM |  | > 10 µM | > 10 µM |  | 2.08 µM | 30 µM
4 | CC(=O)N[C@H](Cc1ccccc1)C(=O)N[C@@H](CCCNC(=N)N)C(=O)N[C@H](Cc1c[nH]c2ccccc12)C(N)=O | > 10 µM |  | > 10 µM | > 10 µM |  | 9.16 µM | 1.5 µM
5 | CC(=O)N[C@@H](Cc1ccccc1)C(=O)N[C@H](CCCN=C(N)N)C(=O)N[C@H](Cc1c[nH]c2ccccc12)C(N)=O | > 10 µM | > 100 µM | > 10 µM | > 10 µM |  | > 10 µM | 
6 | CC(=O)N[C@H](Cc1ccccc1)C(=O)N[C@H](CCCNC(=N)N)C(=O)N[C@H](Cc1c[nH]c2ccccc12)C(N)=O | > 10 µM | > 100 µM | > 10 µM | > 10 µM |  | > 10 µM | 
7 | CC(=O)N[C@@H](Cc1ccccc1)C(=O)N[C@@H](CCCNC(=N)N)C(=O)N[C@H](Cc1c[nH]c2ccccc12)C(N)=O | > 10 µM | > 100 µM | > 10 µM | > 10 µM |  | > 10 µM | 

Continued, values first:

Row | IC50 [1] | EC50 [2] | IC50 [3] | IC50 [4] | EC50 [5] | IC50 [6] | EC50 [7] | SMILES
8 | > 10 µM | 10 µM | > 10 µM | > 10 µM |  |  |  | CC(=O)N[C@@H](Cc1c[nH]cn1)C(=O)N[C@H](Cc1ccccc1)C(=O)N[C@H](CCCN=C(N)N)C(=O)N[C@@H](Cc1c[nH]c2ccccc12)C(N)=O
9 | 0.615 µM | 0.2 µM | > 10 µM | > 10 µM | 0.228 µM |  |  | CC(=O)N[C@@H](Cc1cnc[nH]1)C(=O)N[C@H](Cc1ccccc1)C(=O)N[C@@H](CCCNC(=N)N)C(=O)N[C@@H](Cc1c[nH]c2ccccc12)C(N)=O
10 | 6.35 µM | 2 µM | > 10 µM | > 10 µM | 1.43 µM |  |  | CC(=O)N[C@@H](Cc1c[nH]cn1)C(=O)N[C@@H](Cc1ccccc1)C(=O)N[C@@H](CCCN=C(N)N)C(=O)N[C@H](Cc1c[nH]c2ccccc12)C(N)=O
11 | > 10 µM | 5.5 µM | > 10 µM | > 10 µM |  | > 10 µM |  | CC(=O)N[C@H](Cc1ccccc1)C(=O)N[C@H](CCCN=C(N)N)C(=O)N[C@@H](Cc1c[nH]c2ccccc12)C(N)=O
